Assay results as given in US20210024482A1, “Novel Group of STAT3 Pathway Inhibitors and Cancer Stem Cell Pathway Inhibitors” (Sumitomo Dainippon Pharma Oncology, Inc., priority 2007, published 2021).
“Also recorded” adds a separate entry of the source.

Assays:
CD133^+ cells = test: Cleaved-Caspase 3 staining of CD133+ cells; format: cell-based; details: FIG. 9B
Description: Sorting tumor cells based primarily upon the differential expression of the surface marker(s), such as CD44 or CD133, have accounted for the majority of the highly tumorigenic CSCs described to date. CD133 isolation is based upon the method of Ricci-Vitiani et al., with slight modification. CD133^+ cells were isolated by either fluorescence activated cell sorting (FACS) or magnetic nanoparticle-based separation. Briefly, […] were labeled with CD133/1 (AC133)-PE for FACS-based cell sorting; or with CD133/1 (AC133)-biotin (Miltenyi Biotec, Auburn, Calif.) for magnetic field-based separation using the EasySep® biotin selection kit (Miltenyi Biotec) according to the manufacturer's recommendations. Non-specific labeling was blocked with the supplied FcR blocking reagent and antibody incubations (1:11) were carried out on ice for 15 minutes in PBS with 2% FBS and 1 mM EDTA. Five washes were done for EasySep® isolation, whereas cells were pelleted at 400×g for 5 minutes and resuspended at 2×10^7/mL, before sorting by FACS.
Cells treated with indicated compound for an indicated time were either fixed in 4% formaldehyde or cold methanol for the detection of Annexin V, cleaved caspase 3, or stat3, respectively. Coverslips were air dried and rehydrated in PBS at room temperature for 10 min. […]

CD44^high CSCs = test: Sphere assay with CD44high CSCs; format: cell-based; details: spheres grown 72 hours before challenge, FIGS. 10A and 10B
Experimental: A reliable method of measuring the self-renewal capacity of cell population if the ability to be cultured as spheres in the absence of serum or attachment. CD44^high FaDu or Hoechst side population cancer stem cells were cultured in ultra low attachment plates in cancer stem cell media (DMEM/F12, B27 Neurobasal supplement, 20 ng/ml EGF, 10 ng/ml FGF, 4 μg/ml insulin, and 0.4% BSA) to allow spheres formation. Typically, sphere formation was evaluated by microscopy after 10-14 days in culture and spheres with >50 cells were scored.
One of the hallmarks cancer stem cells is their ability to self-renew. A reliable method of measuring the self-renewal capacity of cell populations is the ability to be cultured as spheres in the absence of serum or attachment. To compare the ability of compound 401 to other targeted and chemotherapeutic agents, FACS-isolated CD44^high CSCs were grown as spheres for 72 hours before being challenged with a panel of therapeutic agents. […] Tarceva, Sutent, and Gleevec were added at approximately three times their reported therapeutic concentrations.

CD34^+ BM Myeloid = test: Colony formation assay, CD34+ bone marrow myeloid lineage; format: cell-based; details: normal cells, 6 hours incubation
Description: In a similar fashion to PMBCs, CD34^+ bone marrow hematopoietic stem cells were spared when treated with compound 401.

Stat3 = Stat3 DNA binding assay (EMSA) with HeLa nuclear extracts; format: biochemical; details: HeLa nuclear extract, FIG. 7A/7B
Experimental: Electrophoretic mobility shift assay (EMSA) was performed as described by the manufacturer (Li-Cor Biosciences, Lincoln, Nebr.). Briefly, nuclear extracts were made from HeLa cells using the NucBuster Protein Extraction Kit as described by the manufacturer (EMD Biosciences, San Diego, Calif.). 5 μg of nuclear extract was pre-incubated with the indicated dose of indicated compound for 30 minutes prior to a 15-minute incubation with the IR700-labeled consensus Stat3 oligonucleotide. Samples were then electrophoresed on a polyacrylamide gel and directly scanned using the Odyssey infrared imaging system (Li-Cor Biosciences). For the enzyme-linked immunosorbent assay (ELISA), 5 μg of nuclear extract was preincubated with indicated concentration of indicated compound for 30 minutes prior to the addition of biotinylated oligo (5′-Biotin-[…]-3′, SEQ ID NO. 1). Stat3-DNA complexes were then captured on streptavidin coated 96 well plates (Pierce, Rockford, Ill.). Bound complexes were then incubated with Stat3 polyclonal antibody (Santa Cruz Biotechnology, Santa Cruz, Calif.) followed by anti-rabbit HRP conjugated secondary antibody (GE Healthcare, Pittsburgh, Pa.). Bound antibody was then visualized by addition of TMB substrate (Pierce) and absorbance measured at 450 nm,
Nuclear extracts from HeLa cells, which contain constitutively activated Stat3 as detected by phoshporylation at the tyrosine 705 residue, were used to perform Stat3 EMSAs to monitor Stat3 DNA binding activity. Nuclear extracts were incubated with indicated compound prior to incubation with IR700-labeled Stat3 consensus oligonucleotide. Binding of Stat3 to the oligonucleotide was monitored by gel electrophoresis and detection using a LiCor Odyssey infrared scanner.

## CC(=O)c1cc2c(o1)C(=O)c1ccccc1C2=O [Compound 401, 2-acetylnaphtho[2,3-b]furan-4,9-dione]
CD133^+ cells
  cleaved-Caspase 3 staining: many of the CD133^+ cells become cleaved-Caspase 3 positive
CD44^high CSCs
  prevention of sphere proliferation: effective at preventing sphere proliferation
CD34^+ BM Myeloid
  IC50: > 30 µM
Stat3
  inhibition of Stat3 DNA binding activity: Dose dependent inhibition of Stat3 DNA binding; also recorded: can inhibit Stat3's DNA binding activity
